Results as given in patent publication US20200399222A1, “PICOLINAMIDES AS FUNGICIDES” (Dow AgroSciences LLC, priority 2018, published 2020).
Like-named read-outs stand apart in the source and are kept apart here.

How the values were obtained:
Format in all cases: in vivo
[1] = system: Phakopsora pachyrhizi; assay: Asian soybean rust (PHAKPA) disease control on soybean seedlings; settings: High volume application at 25 ppm; for pest or weed control at 25 ppm: Phakopsora pachyrhizi
Method: Example C: Evaluation of Fungicidal Activity: Asian Soybean Rust (Phakopsora pachyrhizi; Bayer Code […]) Technical grades of materials were dissolved in acetone, which were then mixed with nine volumes of water containing 0.011% Tween 20. The fungicide solutions were applied onto soybean seedlings using an automated booth sprayer to run-off. All sprayed plants were allowed to air dry prior to further handling. Soybean plants (variety Williams 82) were grown in soil-less Metro mix, with one plant per pot. Two week old seedlings were used for testing. Plants were inoculated either 3 days prior to or 1 day after fungicide treatments. Plants were incubated for 24 h in a dark dew room at 22° C. and 100% relative humidity then transferred to a growth room at 23° C. for disease to develop. Disease severity was assessed on the sprayed leaves.

[2] = system: Zymoseptoria tritici; assay: Leaf blotch of wheat (SEPTTR) disease control on wheat seedlings; settings: High volume application, 100 ppm
Method: Example A: Evaluation of Fungicidal Activity: Leaf Blotch of Wheat (Zymoseptoria tritici; Bayer Code […]) Technical grades of materials were dissolved in acetone, which were then mixed with nine volumes of water containing 110 ppm Triton X-100. The fungicide solutions were applied onto wheat seedlings using an automated booth sprayer to run-off. All sprayed plants were allowed to air dry prior to further handling. All fungicides were evaluated using the aforementioned method for their activity vs. all target diseases, unless stated otherwise. Wheat leaf blotch and brown rust activity were also evaluated using track spray applications, in which case the fungicides were formulated as EC formulations, containing 0.1% Trycol 5941 in the spray solutions. Wheat plants (variety Yuma) were grown from seed in a greenhouse in 50% mineral soil/50% soil-less Metro mix until the first leaf was fully emerged, with 7-10 seedlings per pot. These plants were inoculated with an aqueous spore suspension of Zymoseptoria tritici either prior to or after fungicide treatments. After inoculation the plants were kept in 100% relative humidity (one day in a dark dew chamber followed by two to three days in a lighted dew chamber at 20° C.) to permit spores to germinate and infect the leaf. The plants were then transferred to a greenhouse set at 20° C. for disease to develop. When disease symptoms were fully expressed on the 1st leaves of untreated plants, infection levels were assessed on a scale of 0 to 100 percent disease severity. Percent disease control was calculated using the ratio of disease severity on treated plants relative to untreated plants.

[3] = system: Puccinia triticina; assay: Wheat brown rust (PUCCRT) disease control on wheat seedlings; settings: High volume application, 100 ppm
Method: Technical grades of materials were dissolved in acetone, which were then mixed with nine volumes of water containing 110 ppm Triton X-100. The fungicide solutions were applied onto wheat seedlings using an automated booth sprayer to run-off. All sprayed plants were allowed to air dry prior to further handling. All fungicides were evaluated using the aforementioned method for their activity vs. all target diseases, unless stated otherwise. Wheat leaf blotch and brown rust activity were also evaluated using track spray applications, in which case the fungicides were formulated as EC formulations, containing 0.1% Trycol 5941 in the spray solutions. Example B: Evaluation of Fungicidal Activity: Wheat Brown Rust (Puccinia triticina; Synonym: Puccinia recondita f. sp. tritici; Bayer Code PUCCRT) Wheat plants (variety Yuma) were grown from seed in a greenhouse in 50% mineral soil/50% soil-less Metro mix until the first leaf was fully emerged, with 7-10 seedlings per pot. These plants were inoculated with an aqueous spore suspension of Puccinia triticina either prior to or after fungicide treatments. After inoculation the plants were kept in a dark dew room at 22° C. with 100% relative humidity overnight to permit spores to germinate and infect the leaf. The plants were then transferred to a greenhouse set at 24° C. for disease to develop. Fungicide formulation, application and disease assessment followed the procedures as described in the Example A.

[4] = 24 h, 1 day protectant, read-out: PHAKPA 1DP (1 Day Protectant) disease control
[5] = 24 h, 1 Day Protectant, read-out: SEPTTR disease control rating, 1DP
[6] = 72 h, 3 Day Curative, read-out: SEPTTR disease control rating, 3DC
[7] = 24 h, 1 Day Protectant, read-out: PUCCRT disease control rating, 1DP
[8] = 72 h, 3 Day Curative, read-out: PUCCRT disease control rating, 3DC

| SMILES | pest or weed control at 25 ppm [1, 4] [%] | pest or weed control at 25 ppm ([1]; 72 h, 3 day curative, read-out: PHAKPA 3DC (3 Day Curative) disease control) [%] | PHAKPA 3DC (3 Day Curative) disease control ([1]; 3 day curative) | pest or weed control at 100 ppm [2, 5] [%] | pest or weed control at 100 ppm [2, 6] [%] | pest or weed control at 100 ppm [3, 7] [%] | pest or weed control at 100 ppm [3, 8] [%] |
| --- | --- | --- | --- | --- | --- | --- | --- |
| COc1ccnc(C(=O)N[C@H](C(=O)O[C@H](C)[C@@H](C)c2ccccc2C)C(C)C)c1OC(C)=O [Example 191] | < 80 | < 80 | – | – | – | – | – |
| COc1ccc([C@H](C)[C@H](C)OC(=O)CNC(=O)c2nccc(OC)c2OC(=O)C(C)C)c(C)c1 [Example 200] | < 80 | – | B (≤80) | – | – | – | – |
| COc1ccnc(C(=O)N[C@@H](C)C(=O)O[C@@H](C)[C@@H](C)c2c(C)cc(F)cc2C)c1O [Example 167] | – | – | – | > 80 | > 80 | > 80 | > 80 |
| COc1ccc([C@H](C)[C@H](C)OC(=O)[C@H](C)NC(=O)c2nccc(OC)c2O)c(C)c1 [Example 132] | – | – | – | > 80 | < 80 | > 80 | > 80 |
| COc1ccnc(C(=O)N[C@H](C)C(=O)O[C@@H](C)[C@@H](C)c2ccc(F)cc2C)c1O [Example 148] | – | – | – | > 80 | < 80 | > 80 | < 80 |
| COc1ccnc(C(=O)NCC(=O)O[C@H](C)[C@@H](C)c2ccccc2C)c1O [Example 125] | – | – | – | < 0 | < 80 | < 80 | < 0 |
| COc1ccc([C@H](C)[C@H](C)OC(=O)CNC(=O)c2nccc(OC)c2O)c(C)c1 [Example 122] | – | – | – | < 80 | < 80 | > 80 | > 80 |
| COc1ccc([C@@H](C)[C@@H](C)OC(=O)[C@@H](C)NC(=O)c2nccc(OC)c2O)c(C)c1 [Example 157] | – | – | – | < 80 | < 80 | < 80 | < 0 |
| COc1ccnc(C(=O)N[C@@H](C)C(=O)O[C@@H](C)[C@@H](C)c2ccc(C)cc2C)c1O [Example 116] | – | – | – | < 80 | > 80 | > 80 | > 80 |
| COc1ccnc(C(=O)N[C@@H](C)C(=O)O[C@@H](C)[C@H](C)c2ccc(F)cc2C)c1O [Example 129] | – | – | – | < 80 | < 80 | > 80 | < 80 |
| COc1ccnc(C(=O)N[C@H](C(=O)O[C@@H](C)[C@@H](C)c2ccc(F)cc2)C(C)C)c1O [Example 141] | – | – | – | > 80 | < 80 | > 80 | < 80 |
| COc1ccnc(C(=O)N[C@@H](C)C(=O)O[C@H](C)[C@H](C)c2c(C)cc(F)cc2C)c1O [Example 169] | – | – | – | > 80 | > 80 | > 80 | > 80 |
| COc1ccnc(C(=O)N[C@@H](C)C(=O)O[C@H](C)[C@@H](C)c2ccc(F)cc2C)c1O [Example 134] | – | – | – | < 80 | < 80 | < 80 | < 80 |
| COc1ccnc(C(=O)N[C@@H](C)C(=O)O[C@H](C)[C@@H](C)c2ccccc2C)c1O [Example 135] | – | – | – | < 80 | < 80 | < 80 | < 80 |
